# According to patent US7645449B2, “Sensitizing cells for apoptosis by selectively blocking cytokines” (priority 2003, dated 2010):
# B1: IL-10: human recombinant IL-10 (protein, UniProt P22301 19-178, looked up)
# Interleukin-10: SPGQGTQSENSCTHFPGNLPNMLRDLRDAFSRVKTFFQMKDQLDNLLLKESLLEDFKGYLGCQALSEMIQFYLEEVMPQAENQDPDIKAHVNSLGENLKTLRLRLRRCHRFLPCENKSKAVEQVKNAFNKLQEKGIYKAMSEFDIFINYIEAYMTMKIRN
# B2: IFN-γ: human recombinant IFN-γ (protein, UniProt P01579 24-161, looked up)
# Interferon gamma: QDPYVKEAENLKKYFNAGHSDVADNGTLFLGILKNWKEESDRKIMQSQIVSFYFKLFKNFKDDQSIQKSVETIKEDMNVKFFNSNKKKRDDFEKLTNYSVTDLNVQRKAIHELIQVMAELSPAAKTGKRKRSQMLFRG
# What was measured:
# Assay type in all cases: cell-based, human
# [1] = system: RT112 bladder carcinoma cells; assay: MTS viability of RT112 cells: chemotherapy- and anti-CD95-induced apoptosis; conditions: RT112 without IL-4; 50 ng/ml camptothecin or 7 μM etoposide
# From the text: Anticancer treatment using cytotoxic drugs mediates cell death by activating the intracellular apoptotic program. To determine whether IL-4 was able to inhibit apoptosis induced by chemotherapeutic drugs, bladder tumor cells (RT112) were pretreated for two days with different concentrations of IL-4 and subsequently exposed to camptothecin or etoposide.
# Human LNCAP prostate cancer cell line and human MDA-MB-231 breast cancer cell line were obtained from the American Type Culture Collection (ATCC, Manassas, Va.). Human RT112 bladder carcinoma cell line was kindly provided by Dr. M. Cippitelli (Regina Elena Cancer Institute, Rome, Italy). Cells were grown in RPMI 1640 (Life Technologies Inc., Grand Island, N.Y.) containing 10% heat inactivated fetal bovine serum supplemented with L-Glutamine 2 mM and 100 units/ml Penicillin-Streptomycin. Cells were kept in 5% CO2 atmosphere and routinely passaged when 80-85% confluent. […] Camptothecin, cisplatin, daunorubicine, etoposide and vincristine were purchased from Sigma-Aldrich Inc. (Sain Louis, Mo.) and resuspended in DMSO (cisplatin, camptothecin and etoposide) or in H2O (daunorubicine and vincristine). Anti-CD95 agonistic antibody (clone CH11) was purchased from Upstate Biotechnology (Lake Placid, N.Y.). Monoclonal antibody anti-Bcl-XL (H5, mouse) was from Santa Cruz (Santa Cruz, Calif.), antibody anti-cFlip/FLAME-1 (NF6, mouse) was kindly provided by Dr. P.H. Krammer (German Cancer Reseach Center, Heidelberg, Germany). Antibody anti β-actin (goat) was purchased from Oncogene (Boston, Mass.):
# Cell viability was determined using the CellTiter 96® AQueous One Solution Cell Proliferation Assay (Promega, Madison, Wis.), according to the manufacturer's instructions. The assay is based on reduction of 3-(4,5-dimethylthiazol-2-yl)-5-(3-carboxymethoxyphenyl)-2-(4-sulfophenyl)-2H-tetrazolium, inner salt (MTS) to a colored formazan product that is measured spectrophotometrically. Cells were seeded in 96-well tissue culture plates and incubated at 37° C. in a 5% CO2 incubator overnight. […] After two days cells were treated for 10 hours with chemotherapeutic drugs or anti-CD95, then 20 μl of MTS were added to each well. After 3 hours of incubation at 37° C. with the MTS reagent, the plates were read on a Multilabel Counter (Victor2, Wallac, Perkin-Ehmer Inc., Norwalk, Conn.) and dye absorbance was measured at 490 nm.
# The percentage of apoptotic cells was derived from the percentage of viable cells that was directly calculated from the values of the MTS assay. The percentage of protection from apoptosis was determined as: % protection=100%−X
# X was calculated with the formule: (C1−C2):100=(S1−S2):X where:
# C1 is the viability of untreated control cells, C2 is the viability of control cells treated with the apoptotic stimulus, S1 and S2 are the viability of cells preincubated with cytoldnes or transduced with anti-apoptotic genes, untreated (S1) or treated (S2) with the apoptotic stimuli.
# (A) Percentage of viable RT112 bladder carcinoma cells pre-treated for two days with increasing doses of IL-4 (5, 10, 20, 50 and 100 ng/ml) which were maintained also during incubation with chemotherapeutic drugs and exposed to 50 ng/ml camptothecin of 7 μM etoposide. […] Cell viability was determined after 24 hours using the MTS assay as described in Materials and Methods and the percentage of protection from cell death was calculated as described in Materials and Methods. The results shown are the mean ±s.d. of four independent experiments.
# When the cytokine is removed by washing the percentage of protection is downmodulated.
# (E) IL-4 prevents anti CD95-induced apoptosis. […] Successively, cells were incubated with 30 ng/ml anti-CD95 agonistic antibody in standard medium, Control cells (−) were stimulated with anti-CD95 in the absence of cytokine pre-treatment. The results shown are the mean ±s.d. of four independent experiments.
# [2] = system: primary neoplastic cells derived from all the histological variants of thyroid epithelial carcinomas (PTC, FTC, UTC); assay: Chemotherapy-induced cell death in freshly purified thyroid carcinoma cells compared with normal thyrocytes; conditions: cisplatin 300 ng/ml, doxorubicin 5 μM, taxol 5 μM, 6, 12 and 24 h
# Procedure: Such resistance persisted for some days and was generally lost after eight to ten days of in vitro culture (results not shown).
# (§1) Thyroid cell purification and culture. Thyroid tissues from normal, PTC, FTC and UTC were digested for 2 hours with collagenase (1.5 mg/ml) (Gibco BRL, Grand Island, N.Y.) and hyaluronidase (20 μg/ml) (Sigma Chemical Co., St. Louis, Mo.) in DMEM. Thyrocytes were purified from the digested tissues by hematopoietic cell depletion with anti-CD45-coupled beads (Dynal, Wirral Merseyside, U.K.) and 12 hours of flask adherence, which allowed removal of other cells. After additional 12 hours of culture, thyroid cells were allowed to grow in monolayer for the immunocytochemistry or detached with trypsin+EDTA following exposure to cytokines or chemotherapeutic agents for functional and protein analyses. Thyrocytes were cultured in standard DMEM with 10% heat-inactivated FBS (Hyclone Laboratories, Logan, UK) in the presence or absence of human recombinant IL-4 (20 ng/ml), IL-10 (40 ng/ml) or IFN-γ (1000 IU/ml) (uroclone, Paignton, UK) and cisplatin (300 ng/ml), doxorubicin (5 μM) and taxol (5 μM) (Sigma) or TRAIL (Alexis, San Diego, USA). For the IL-4 and IL-10 neutralization, thyroid cancer cells were pretreated, for 48 hours, with anti-human IL-4 and IL-10 neutralizing antibodies (1 μg/ml) (R&D systems, MN, USA).
# Cell death quantitation. Apoptotic events of neoplastic thyrocytes were evaluated by DNA staining and flow cytometry analysis. Thyroid cell pellets were resuspended in hypotonic fluoroclrome solution containing propidium iodide (50 μg/ml), in 0.1% sodium citrate and 0.1% Triton X-100. The percentage of hypodiploid nuclei was evaluated as previously described. Alternatively, freshly purified thyrocytes were plated in 96-bottomed plates in triplicate at 15,000 cells/well and cultured. The number of viable cells was detected by CellTiter Aqueous Assay Kit (Promega Corporation, WI, USA) adding 20 μl of solution reagent directly to culture wells, incubating for 1 hours at 37° C. and recording absorbance at 490 nm.
# FIG. 1. […]
# [3] = system: Bcl-xL and Bcl-2 in normal thyrocytes; assay: Immunoblot of Bcl-xL and Bcl-2 in normal thyrocytes cultured with cytokines; conditions: after 48 hours of culture; IL-4 20 ng/ml, IL-10 40 ng/ml, IFN-γ 1000 IU/ml
# Procedure: as §1
# Protein isolation and Western Blotting. Cell pellets were resuspended in ice-cold NP-40 lysis buffer (50 mM Tris-HCl, pH 7.5, 150 mM NaCl, 1 mM EGTA, 1% NP-40) containing 1 mM PMSF, leupeptin (1 μg/ml), pepstatin (1 μg/ml) and aprotirni (1 μg/ml). Each lysate (30 μg) was fractioned on 12% SDS-polyacrylamide gels and blotted to nitrocellulose (Hybond, Amersham, Little Chalfont Buckinghamshire England, UK). Membrane was blocked for 1 h with nonfat dry milk in TBS containing 0.05% Tween 20 and successively incubated for 2 h with Abs specific to actin (Ab-1, mouse IgM, Calbiochem, Darmstadt, Germany), Bcl-2 (124, mouse IgG1, Upstate Biotechnology Inc.), Bcl-xL (H-5, mouse IgGl, Santa Cniz Biotechnology), IL-4 (3007.11, mouse IgG1, R&D Systems, Inc., Minneapolis, USA), IL-10 (23738.111, mouse IgG2b, R&D Systems), IFN-γ (25718.111, mouse IgG2a, R&D Systems). […]
# [4] = system: normal thyrocytes; assay: Cytokine protection of normal thyrocytes from chemotherapy-induced apoptosis; conditions: 48 h pre-treatment, rhIL-4 20 ng/ml or rhIL-10 40 ng/ml, then drugs for 12 h
# Procedure: Thyroid cell purification and culture. Thyroid tissues from normal, PTC, FTC and UTC were digested for 2 hours with collagenase (1.5 mg/ml) (Gibco BRL, Grand Island, N.Y.) and hyaluronidase (20 μg/ml) (Sigma Chemical Co., St. Louis, Mo.) in DMEM. Thyrocytes were purified from the digested tissues by hematopoietic cell depletion with anti-CD45-coupled beads (Dynal, Wirral Merseyside, U.K.) and 12 hours of flask adherence, which allowed removal of other cells. After additional 12 hours of culture, thyroid cells were allowed to grow in monolayer for the immunocytochemistry or detached with trypsin+EDTA following exposure to cytokines or chemotherapeutic agents for functional and protein analyses. […]
# Cell death quantitation. Apoptotic events of neoplastic thyrocytes were evaluated by DNA staining and flow cytometry analysis. […] The percentage of hypodiploid nuclei was evaluated as previously described. […] The number of viable cells was detected by CellTiter Aqueous Assay Kit (Promega Corporation, WI, USA) adding 20 μl of solution reagent directly to culture wells, incubating for 1 hours at 37° C. and recording absorbance at 490 nm. […]
molecule,measurement,setting,value
"CC[C@@]1(O)C(=O)OCc2c1cc1n(c2=O)Cc2cc3ccccc3nc2-1 [camptothecin, reference compound]",tumor cells undergoing apoptosis in response to chemotherapeutic agents,[1],~60%
N.N.[Cl][Pt][Cl] [cisplatin],sensitivity of primary neoplastic thyroid cells to chemotherapeutic drugs (viability/apoptosis),[2],considerable resistance
COc1cccc2c1C(=O)c1c(O)c3c(c(O)c1C2=O)C[C@@](O)(C(=O)CO)C[C@@H]3O[C@H]1C[C@H](N)[C@H](O)[C@H](C)O1 [doxorubicin],sensitivity of primary neoplastic thyroid cells to chemotherapeutic drugs (viability/apoptosis),[2],considerable resistance
"COc1cc([C@@H]2c3cc4c(cc3[C@@H](O[C@@H]3O[C@@H]5CO[C@@H](C)O[C@H]5[C@H](O)[C@H]3O)[C@H]3COC(=O)[C@H]23)OCO4)cc(OC)c1O [etoposide, reference compound]",tumor cells undergoing apoptosis in response to chemotherapeutic agents,[1],~60%
CC(=O)O[C@H]1C(=O)[C@@]2(C)[C@H]([C@H](OC(=O)c3ccccc3)[C@]3(O)C[C@H](OC(=O)[C@H](O)[C@@H](NC(=O)c4ccccc4)c4ccccc4)C(C)=C1C3(C)C)[C@]1(OC(C)=O)CO[C@@H]1C[C@@H]2O [taxol],sensitivity of primary neoplastic thyroid cells to chemotherapeutic drugs (viability/apoptosis),[2],considerable resistance
B1,Bcl-xL and Bcl-2 expression in normal thyrocytes,[3],upregulated
same,"prevention of death of normal thyrocytes exposed to cisplatinum, doxorubicin and taxol",[4],drastically prevented death
B2,Bcl-xL and Bcl-2 expression in normal thyrocytes,[3],not effective
